Square brackets hold non-standard residues; d marks the D form. Peptide text beside a SMILES is read from it. 1Nal = N[C@@H](Cc1cccc2ccccc12)C(=O)O
What was measured:
[1] = biological target: T1, CGRP1 receptor (human neuroblastoma cell (SK-N-MC) membrane) (Homo sapiens, UniProt O60894+Q16602); experiment: CGRP1 binding assay (125I-hαCGRP displacement); settings: Table 3B
T1 construct: human neuroblastoma cell (SK-N-MC) membrane suspension; purchased PerkinElmer; host or cells: SK-N-MC human neuroblastoma cell membranes (endogenous receptor)
T1 sequence (Q16602 23-461): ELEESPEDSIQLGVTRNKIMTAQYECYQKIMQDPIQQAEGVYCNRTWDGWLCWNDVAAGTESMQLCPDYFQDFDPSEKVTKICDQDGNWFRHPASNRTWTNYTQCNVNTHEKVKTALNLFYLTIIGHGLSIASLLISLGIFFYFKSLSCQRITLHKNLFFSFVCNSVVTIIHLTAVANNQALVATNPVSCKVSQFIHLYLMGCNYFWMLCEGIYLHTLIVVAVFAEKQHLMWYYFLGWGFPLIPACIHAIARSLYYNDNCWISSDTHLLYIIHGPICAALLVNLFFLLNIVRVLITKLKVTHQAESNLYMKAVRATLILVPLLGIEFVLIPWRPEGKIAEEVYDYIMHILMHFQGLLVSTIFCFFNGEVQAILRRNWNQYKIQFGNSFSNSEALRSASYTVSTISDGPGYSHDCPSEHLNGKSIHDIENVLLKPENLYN
T1 sequence (O60894 27-148): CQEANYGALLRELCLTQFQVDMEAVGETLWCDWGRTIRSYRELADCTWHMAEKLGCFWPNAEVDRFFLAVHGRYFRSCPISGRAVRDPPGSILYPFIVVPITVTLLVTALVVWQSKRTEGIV
Method: CGRP1 binding experiments. […] The plates were incubated at room temperature for 2 hour with shaking at 60 rpm, then the contents of each well were filtered over 0.5% polyethyleneimine (PEI)-treated (at least one hour) GF/C 96-well filter plates. The GF/C filter plates were washed 6 times with ice-cold 50 mM Tris, pH 7.5 and dried in an oven at 55 C for 1 hour. The bottoms of the GF/C plates were then sealed, and 40 μl Microscint™ 20 was added to each well, then the tops of the GF/C plates were sealed with TopSeal™-A, a press-on adhesive sealing film, and the GF/C plates were counted with TopCount NXT (Packard). The data were analyzed by using ActivityBase (IDBS) or Prizm (GraphPad) software.

[2] = in vitro stability in 10% rat plasma, LC-MS/MS; assay type: in vitro ADME; settings: room temperature; for % Remaining / remaining at 0.5 h, 100 ng/ml / remaining at 1 h, 100 ng/ml / remaining at 2 h, 100 ng/ml / remaining at 3 h, 100 ng/ml / remaining at 4 h, 100 ng/ml / remaining at 5 h, 100 ng/ml / remaining at 6 h, 100 ng/ml: 100 ng/ml; for % Remaining: 0 h
Method: (§1) Consequently, the stability of select, non-PEGylated analogs was evaluated in vitro in the presence of 10% rat or human plasma. Briefly, samples of each peptide were diluted to 100 ng/ml into PBS containing 10% of rat or human plasma. Each sample was then incubated at room temperature and analyzed by LC-MS/MS to quantitate the intact peptide remaining at select time points over 6 hours.

[3] = in vitro stability in 10% human plasma, LC-MS/MS; assay type: in vitro ADME; settings: room temperature
Method: as §1

CGRP1 receptor = biological target: T2, CGRP1 receptor (Homo sapiens, UniProt O60894+Q16602); experiment: in vitro CGRP1 receptor mediated cAMP assay in SK-N-MC cells; assay type: cell-based
T2 construct: SK-N-MC cells express CRLR and RAMP1, which form CGRP1 receptor; endogenous in cells; host or cells: SK-N-MC human neuroblastoma cells
T2 sequence (Q16602 23-461): as the sequence (Q16602 23-461) above
T2 sequence (O60894 27-148): as the sequence (O60894 27-148) above
Summary of the method: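 Human SK-N-MC neuroblastoma cells, which endogenously express CRLR/RAMP1, were plated two days before assay and preincubated in plasma-free medium for 15 minutes at room temperature. Cells were then lysed for 30 minutes at 37° C, and cAMP in the lysates was quantified by competitive cAMP-AP chemiluminescent ELISA.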

[4] = read-out: time at which 50% depleted
[5] = read-out: time at which 50% depleted / detectable
[6] = read-out: time at which 50% remains (converted)

| Ki [1] | time at which about 10% of the starting concentration remains [2] | time at which about 10% of the starting concentration remains [3] | % Remaining [2] | remaining at 0.5 h, 100 ng/ml [2] | remaining at 1 h, 100 ng/ml [2] | remaining at 2 h, 100 ng/ml [2] | remaining at 3 h, 100 ng/ml [2] | remaining at 4 h, 100 ng/ml [2] | remaining at 5 h, 100 ng/ml [2] | remaining at 6 h, 100 ng/ml [2] | Compound | further results |
| --- | --- | --- | --- | --- | --- | --- | --- | --- | --- | --- | --- | --- |
| 155 nM | – | – | – | – | – | – | – | – | – | – | 685 (Ac-WVTHRLAGLLSRSGGVVK(20 kDa PEG)NNFVPTDVGPFAF-NH2) [compound 685] | – |
| 1.33 nM | – | – | – | – | – | – | – | – | – | – | 686 (Ac-WVTHRLAGLLSRSGGVVK(20 kDa PEG)NNFVPTDVGPFAF-NH2) [compound 686] | – |
| 0.49 nM | – | – | – | – | – | – | – | – | – | – | 687 (Ac-WVTHRLAGLLSRSGGVVK(20 kDa PEG)NNFVPTDVGPFAF-NH2) [compound 687] | – |
| – | ~2.5 h | about 1 hours | – | – | – | – | – | – | – | – | CC(=O)N[C@@H](Cc1c[nH]c2ccccc12)C(=O)N[C@H](C(=O)N[C@H](C(=O)N[C@@H](Cc1cnc[nH]1)C(=O)N[C@@H](CCCN=C(N)N)C(=O)N[C@@H](CC(C)C)C(=O)N[C@@H](C)C(=O)NCC(=O)N[C@@H](CC(C)C)C(=O)N[C@@H](CC(C)C)C(=O)N[C@@H](CO)C(=O)N[C@@H](CCCN=C(N)N)C(=O)N[C@@H](CO)C(=O)NCC(=O)NCC(=O)N[C@H](C(=O)N[C@H](C(=O)N[C@@H](CCCN=C(N)N)C(=O)N[C@@H](CCCCN)C(=O)N[C@@H](CC(N)=O)C(=O)N[C@@H](Cc1ccccc1)C(=O)N[C@H](C(=O)N1CCC[C@H]1C(=O)N[C@H](C(=O)N[C@@H](CC(=O)O)C(=O)N[C@H](C(=O)NCC(=O)N1CCC[C@H]1C(=O)N[C@@H](Cc1ccccc1)C(=O)N[C@@H](C)C(=O)N[C@@H](Cc1ccccc1)C(N)=O)C(C)C)[C@@H](C)O)C(C)C)C(C)C)C(C)C)[C@@H](C)O)C(C)C [SEQ ID NO:7] | half-life at 100 ng/ml [2, 4]: ~45 min; half-life at 100 ng/ml [3, 5]: < 30 min |
| – | about 5 hours | about 2 hours | – | – | – | – | – | – | – | – | CC(=O)N[C@@H](Cc1c[nH]c2ccccc12)C(=O)N[C@H](C(=O)N[C@H](C(=O)N[C@@H](Cc1cnc[nH]1)C(=O)N[C@@H](CCCCNC(=N)N)C(=O)N[C@@H](CC(C)C)C(=O)N[C@@H](C)C(=O)NCC(=O)N[C@@H](CC(C)C)C(=O)N[C@@H](CC(C)C)C(=O)N[C@@H](CO)C(=O)N[C@@H](CCCCNC(=N)N)C(=O)N[C@@H](CO)C(=O)NCC(=O)NCC(=O)N[C@H](C(=O)N[C@H](C(=O)N[C@@H](CCCNC(=N)N)C(=O)N[C@@H](CCCCN)C(=O)N[C@@H](CC(N)=O)C(=O)N[C@@H](Cc1ccccc1)C(=O)N[C@H](C(=O)N1CCC[C@H]1C(=O)N[C@H](C(=O)N[C@@H](CC(=O)O)C(=O)N[C@H](C(=O)NCC(=O)N1CCC[C@H]1C(=O)N[C@@H](Cc1ccccc1)C(=O)N[C@@H](C)C(=O)N[C@@H](Cc1ccccc1)C(N)=O)C(C)C)[C@@H](C)O)C(C)C)C(C)C)C(C)C)[C@@H](C)O)C(C)C [SEQ ID NO:25] | half-life at 100 ng/ml [2, 6]: ~90 min; reduced antagonist activity relative to the single-substitution analogs (CGRP1 receptor; non-PEGylated double substitution at R11 and R18): about 5 fold; half-life at 100 ng/ml [3, 5]: ~30 min |
| – | – | – | 100.0% | 55.4% | 34.5% | 8% | 5.2% | 1.4% | 1.7% | 0.6% | CC(=O)N[C@@H](Cc1c[nH]c2ccccc12)C(=O)N[C@H](C(=O)N[C@H](C(=O)N[C@@H](Cc1cnc[nH]1)C(=O)N[C@@H](CCCN=C(N)N)C(=O)N[C@@H](CC(C)C)C(=O)N[C@@H](C)C(=O)NCC(=O)N[C@@H](CC(C)C)C(=O)N[C@@H](CC(C)C)C(=O)N[C@@H](CO)C(=O)N[C@@H](CCCN=C(N)N)C(=O)N[C@@H](CO)C(=O)NCC(=O)NCC(=O)N[C@H](C(=O)N[C@H](C(=O)N[C@@H](CCCN=C(N)N)C(=O)N[C@@H](CCCCN)C(=O)N[C@@H](CC(N)=O)C(=O)N[C@@H](Cc1ccccc1)C(=O)N[C@H](C(=O)N1CCC[C@H]1C(=O)N[C@H](C(=O)N[C@@H](CC(=O)O)C(=O)N[C@H](C(=O)NCC(=O)N1CCC[C@H]1C(=O)N[C@@H](Cc1ccccc1)C(=O)N[C@@H](C)C(=O)N[C@@H](Cc1ccccc1)C(N)=O)C(C)C)[C@@H](C)O)C(C)C)C(C)C)C(C)C)[C@@H](C)O)C(C)C [compound 7] | IC50 (CGRP1 receptor; Table 3, unconjugated CGRP peptide analogs, n = 2-4, read-out: IC50): 0.13 nM |
| – | – | – | 100.0% | 76.9% | 58.1% | 27.5% | 21.3% | 16.3% | 11% | 7.1% | CC(=O)N[C@@H](Cc1c[nH]c2ccccc12)C(=O)N[C@H](C(=O)N[C@H](C(=O)N[C@@H](Cc1cnc[nH]1)C(=O)N[C@@H](CCCCNC(=N)N)C(=O)N[C@@H](CC(C)C)C(=O)N[C@@H](C)C(=O)NCC(=O)N[C@@H](CC(C)C)C(=O)N[C@@H](CC(C)C)C(=O)N[C@@H](CO)C(=O)N[C@@H](CCCCNC(=N)N)C(=O)N[C@@H](CO)C(=O)NCC(=O)NCC(=O)N[C@H](C(=O)N[C@H](C(=O)N[C@@H](CCCNC(=N)N)C(=O)N[C@@H](CCCCN)C(=O)N[C@@H](CC(N)=O)C(=O)N[C@@H](Cc1ccccc1)C(=O)N[C@H](C(=O)N1CCC[C@H]1C(=O)N[C@H](C(=O)N[C@@H](CC(=O)O)C(=O)N[C@H](C(=O)NCC(=O)N1CCC[C@H]1C(=O)N[C@@H](Cc1ccccc1)C(=O)N[C@@H](C)C(=O)N[C@@H](Cc1ccccc1)C(N)=O)C(C)C)[C@@H](C)O)C(C)C)C(C)C)C(C)C)[C@@H](C)O)C(C)C [compound 25] | – |
| 0.14 nM | – | – | – | – | – | – | – | – | – | – | CC(C)C[C@H](NC(=O)CNC(=O)[C@H](C)NC(=O)[C@H](CC(C)C)NC(=O)[C@H](CCCNC(=N)N)NC(=O)[C@H](Cc1c[nH]cn1)NC(=O)[C@@H](NC(=O)[C@@H](NC(=O)[C@@H](N)Cc1cccc2ccccc12)C(C)C)[C@@H](C)O)C(=O)N[C@@H](CC(C)C)C(=O)N[C@@H](CO)C(=O)N[C@@H](CCCNC(=N)N)C(=O)N[C@@H](CO)C(=O)NCC(=O)NCC(=O)N[C@H](C(=O)N[C@H](C(=O)N[C@@H](CCCCN)C(=O)N[C@@H](CC(N)=O)C(=O)N[C@@H](CC(N)=O)C(=O)N[C@@H](Cc1ccccc1)C(=O)N[C@H](C(=O)N1CCC[C@H]1C(=O)N[C@H](C(=O)N[C@@H](CC(=O)O)C(=O)N[C@H](C(=O)NCC(=O)N1CCC[C@H]1C(=O)N[C@@H](Cc1ccccc1)C(=O)N[C@@H](C)C(=O)N[C@@H](Cc1ccccc1)C(N)=O)C(C)C)[C@@H](C)O)C(C)C)C(C)C)C(C)C [compound 701] (H-[1Nal]VTHRLAGLLSRSGGVVKNNFVPTDVGPFAF-NH2) | – |
| – | about 5 hours | about 4 hours | – | – | – | – | – | – | – | – | Ac-WVTHQLAGLLSQSGGVVRKNFVPTDVGPFAF-NH2 [SEQ ID NO:39] | half-life at 100 ng/ml [2, 6]: ~90 min; half-life at 100 ng/ml [3, 6]: ~60 min |
| – | – | – | 100.0% | 83.8% | 66.2% | 29.9% | 20.4% | 11.8% | 6.4% | 4% | Ac-WVTHQLAGLLSQSGGVVRKNFVPTDVGPFAF-NH2 [compound 39] | – |
| – | ~2.5 h | about 1 hours | – | – | – | – | – | – | – | – | Ac-WVTHRLAGLLSQSGGVVRKNFVPTDVGPFAF-NH2 [SEQ ID NO:37] | half-life at 100 ng/ml [2, 4]: ~45 min; half-life at 100 ng/ml [3, 5]: < 30 min |
| – | – | – | 100.0% | 62.7% | 39.5% | 10.5% | 4.7% | 2.5% | 1.3% | 0.7% | Ac-WVTHRLAGLLSQSGGVVRKNFVPTDVGPFAF-NH2 [compound 37] | – |

From patent publication US8168592B2 (Amgen Inc., priority 2005, dated 2012)
